Structures can show the parent of a compound that is named as a salt.
Target: CutC from Proteus mirabilis (Proteus mirabilis, UniProt B4EYG1)
Experiment: Cell-based assay for TMA production from a native producer (P. mirabilis)
Conditions: d9-TMA from 1 mM d9-choline, 5 h, 37° C.; value 10 given when no fit or % TMA remaining at 10 μM higher than 15%; read-out: Average IC50 Whole cell P. mirabilis
Text: In each bacterium, CutC was modified into its activated form by a cognate activating enzyme, CutD (protein EDU36696.1 for C. sporogenes; protein WP_004249185.1 for P. mirabilis). […] Trimethylamine may subsequently be converted by human enzymes such as flavin monooxygenase 3 to trimethylamine N-oxide, which might be associated with negative health consequences in humans.
A compound's ability to inhibit CutC from Proteus mirabilis and C. sporogenes from converting choline into trimethylamine was tested in cells as described. A BHI blood plate was inoculated with a frozen stock of Proteus mirabilis or Clostridium sporogenes under anaerobic conditions. A single colony was isolated from the plate and inoculated into 5 mL BHI supplemented with 1 mM choline under anaerobic conditions. The liquid cultures were grown overnight at 37° C.
To prepare each sample, 300 μL of the saturated culture was then inoculated into a 30 mL dilution blank under anaerobic conditions. 1 mM (trimethyl-d9)-choline and a sufficient amount of a compound to obtain a final concentration of 10 μM were added to the inoculated dilution blank. […] The mixture was incubated at 37° C. for 5 h. […] After centrifugation, the samples were analyzed by LCMS to determine the amount of d9-TMA produced.

CutC from Proteus mirabilis, sequence (B4EYG1 entry or part of it): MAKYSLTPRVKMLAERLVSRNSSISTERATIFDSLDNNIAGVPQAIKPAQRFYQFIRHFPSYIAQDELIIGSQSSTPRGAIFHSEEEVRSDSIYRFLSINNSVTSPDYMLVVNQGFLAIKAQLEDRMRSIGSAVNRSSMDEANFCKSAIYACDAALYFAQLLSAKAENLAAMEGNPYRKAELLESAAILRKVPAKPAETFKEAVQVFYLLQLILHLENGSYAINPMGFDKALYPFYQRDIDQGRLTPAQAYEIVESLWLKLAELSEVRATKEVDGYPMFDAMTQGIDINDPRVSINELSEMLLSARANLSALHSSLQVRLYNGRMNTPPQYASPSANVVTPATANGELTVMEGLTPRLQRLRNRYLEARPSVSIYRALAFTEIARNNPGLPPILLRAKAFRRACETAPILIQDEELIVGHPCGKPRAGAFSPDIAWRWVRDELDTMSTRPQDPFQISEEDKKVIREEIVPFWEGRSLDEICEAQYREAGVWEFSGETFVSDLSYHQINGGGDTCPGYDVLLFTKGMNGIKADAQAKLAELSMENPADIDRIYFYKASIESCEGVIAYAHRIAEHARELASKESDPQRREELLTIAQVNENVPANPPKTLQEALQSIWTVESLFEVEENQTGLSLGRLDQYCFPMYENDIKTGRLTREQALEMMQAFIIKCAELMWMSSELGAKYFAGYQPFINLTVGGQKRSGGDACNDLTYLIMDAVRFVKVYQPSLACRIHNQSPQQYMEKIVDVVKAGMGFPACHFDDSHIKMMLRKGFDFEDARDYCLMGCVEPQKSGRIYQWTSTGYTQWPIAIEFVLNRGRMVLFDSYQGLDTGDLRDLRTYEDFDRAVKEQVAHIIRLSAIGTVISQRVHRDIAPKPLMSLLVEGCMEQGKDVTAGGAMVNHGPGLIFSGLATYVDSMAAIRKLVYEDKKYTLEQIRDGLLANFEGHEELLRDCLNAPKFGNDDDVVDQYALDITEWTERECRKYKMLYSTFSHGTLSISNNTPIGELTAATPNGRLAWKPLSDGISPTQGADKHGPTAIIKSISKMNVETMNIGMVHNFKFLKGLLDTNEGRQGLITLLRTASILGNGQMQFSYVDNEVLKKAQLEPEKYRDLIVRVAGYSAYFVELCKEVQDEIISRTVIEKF
CutC from Proteus mirabilis, sequence (B4EYG0 entry or part of it, further chain): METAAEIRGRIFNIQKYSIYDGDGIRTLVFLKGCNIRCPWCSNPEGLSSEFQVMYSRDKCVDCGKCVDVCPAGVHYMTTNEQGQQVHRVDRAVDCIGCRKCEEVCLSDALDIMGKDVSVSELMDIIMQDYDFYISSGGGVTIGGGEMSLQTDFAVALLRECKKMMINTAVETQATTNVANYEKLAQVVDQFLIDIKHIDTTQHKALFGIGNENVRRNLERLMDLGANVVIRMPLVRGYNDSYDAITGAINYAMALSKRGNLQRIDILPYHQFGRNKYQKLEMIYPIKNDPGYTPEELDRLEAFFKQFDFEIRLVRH

`C#CC[N+](C)(C)CC(=O)O[C@H]1CO[C@H]2[C@@H]1OC[C@H]2OC(=O)C[N+](C)(C)CC#C` [Compound 69, N,N′-((((3R,3aR,6S,6aR)-hexahydrofuro[3,2-b]furan-3,6-diyl)bis(oxy))bis(2-oxoethane-2,1-diyl))bis(N,N-dimethylprop-2-yn-1-aminium) bistrifluoroacetate] and `C#CC[N+](C)(C)CCO[C@H]1CO[C@H]2[C@@H]1OC[C@H]2OCC[N+](C)(C)CC#C` [Compound 71, N,N′-((((3R,3aR,6S,6aR)-hexahydrofuro[3,2-b]furan-3,6-diyl)bis(oxy))bis(ethane-2,1-diyl))bis(N,N-dimethylprop-2-yn-1-aminium) bistrifluoroacetate] cannot be ordered by IC50: no less than 10 µM for the first, no less than 10 µM for the second.

First: C#CC[N+](C)(C)CCO[C@@H]1O[C@H](CO)[C@@H](O)[C@H](O)[C@H]1O [Compound 106, N,N-dimethyl-N-(2-(((3R,4S,5S,6R)-3,4,5-trihydroxy-6-(hydroxymethyl)tetrahydro-2H-pyran-2-yl)oxy)ethyl)prop-2-yn-1-aminium 2,2,2-trifluoroacetate]
Second: C#CC[N+](C)(C)CCOCCO [Compound 191, [2-(2-hydroxyethoxy)ethyl]dimethyl(prop-2-yn-1-yl)azanium]
The IC50 of the first is higher: no less than 10 µM for the first, 2.17 µM for the second. The second is the more potent here.

`C[N+]12CCC(CC1)[C@H](O)C2` [Compound 148, (1s,4s)-3-hydroxy-1-methylquinuclidin-1-ium] and `C[N+]12CCC(O)(CC1)CC2` [Compound 149, 4-hydroxy-1-methylquinuclidin-1-ium] cannot be ordered by IC50: no less than 10 µM for the first, no less than 10 µM for the second.

First: C#CC[C@@H](C(=O)O)[N+](C)(C)C [Compound 152, (S)-1-carboxy-N,N,N-trimethylbut-3-yn-1-aminium Iodide]
Second: C#CC[N+](C)(C)C[C@@H](C)C(=O)O [Compound 162, (R)—N-(2-carboxypropyl)-N,N-dimethylprop-2-yn-1-aminium Chloride]
The IC50 of the first is higher: no less than 10 µM for the first, 0.29 µM for the second.

Going from `C#CC[N+](C)(CF)CCO` (stereo not drawn) [Compound 153, N-(fluoromethyl)-N-(2-hydroxyethyl)-N-methylprop-2-yn-1-aminium Iodide] to `C#CC[N+](C)(C)CF` [Compound 179, (fluoromethyl)dimethyl(prop-2-yn-1-yl)azanium Iodide], the IC50 rises from 0.02 µM to 0.11 µM (5.5-fold). The first is the more potent here.

`C#CC[N+]1(CCO)CCCCC1` [Compound 154, 1-(2-hydroxyethyl)-1-(prop-2-yn-1-yl)piperidin-1-ium Bromide] and `C#CC[N+]1(CF)CCCCC1` [Compound 164, 1-(fluoromethyl)-1-(prop-2-yn-1-yl)piperidin-1-ium Iodide] cannot be ordered by IC50: no less than 10 µM for the first, no less than 10 µM for the second.

First: C=C(C[N+](C)(C)C)C(=O)O [Compound 155, 2-carboxy-N,N,N-trimethylprop-2-en-1-aminium Bromide]
Second: C=C(C[N+](C)(C)CF)C(=O)O [Compound 171, (2-carboxy-2-methylideneethyl)(fluoromethyl)dimethylazanium Iodide]
The IC50 of the first is lower: 2.58 µM for the first, no less than 10 µM for the second. The first is the more potent here.

`C=C(C[N+](C)(C)CC(=C)C(=O)O)C(=O)O` [Compound 156, 2-carboxy-N-(2-carboxyallyl)-N,N-dimethylprop-2-en-1-aminium Bromide] and `C=C(C[N+](C)(C)CC#N)C(=O)OC` [Compound 189, N-(cyanomethyl)-2-(methoxycarbonyl)-N,N-dimethylprop-2-en-1-aminium Bromide] cannot be ordered by IC50: no less than 10 µM for the first, greater than 10 µM for the second.

First: C[N+](C)(CCO)CCO [Compound 157, 2-hydroxy-N-(2-hydroxyethyl)-N,N-dimethylethan-1-aminium Iodide]
Second: C=CC[N+](C)(C)CCO [Compound 182, (2-hydroxyethyl)dimethyl(prop-2-en-1-yl)azanium Bromide]
The IC50 of the first is higher: no less than 10 µM for the first, 3.15 µM for the second.

First: C#CC[N+]1(CC(=O)O)CCCCC1 [Compound 160, 1-(carboxymethyl)-1-(prop-2-yn-1-yl)piperidin-1-ium bromide]
Second: C#CC[N+]1(CF)CCCC1 [Compound 187, 1-(fluoromethyl)-1-(prop-2-yn-1-yl)pyrrolidin-1-ium]
The IC50 of the first is higher: no less than 10 µM for the first, 0.763 µM for the second. The second is the more potent here.

`C[N+]1(CF)CCCC[C@@H]1CO` (stereo partly drawn) [Compound 161, (2R)-1-(fluoromethyl)-2-(hydroxymethyl)-1-methylpiperidin-1-ium Iodide] and `C[N+](CF)(CCO)C1CC1` (stereo not drawn) [Compound 172, N-(fluoromethyl)-N-(2-hydroxyethyl)-N-methylcyclopropanaminium Iodide] cannot be ordered by IC50: no less than 10 µM for the first, no less than 10 µM for the second.

Compared with `C#CC[N+](C)(C)CC#C` [Compound 165, N,N-dimethyl-N-(prop-2-yn-1-yl)prop-2-yn-1-aminium Bromide], `C#CC[N+](C)(C)CC#N` [Compound 168, (cyanomethyl)dimethyl(prop-2-yn-1-yl)azanium Bromide] is 2.4-fold lower in IC50: 2.13 µM for the first, 0.87 µM for the second.

First: C#CC[N+](C)(C)C[C@H](C)C(=O)O [Compound 166, (S)—N-(2-carboxypropyl)-N,N-dimethylprop-2-yn-1-aminium Chloride]
Second: C#CC[N+](C)(C)C[C@@H](C)C(=O)OC [Compound 174, [(2R)-3-methoxy-2-methyl-3-oxopropyl]dimethyl(prop-2-yn-1-yl)azanium]
The IC50 of the first is 7.4-fold higher: 1.26 µM for the first, 0.17 µM for the second. The second is the more potent here.

`C=C(CO)C[N+](C)(C)C` [Compound 167, (3-hydroxy-2-methylidenepropyl)trimethylazanium trifluoroacetate] and `C[N+](C)(C)CC#N` [Compound 169, (cyanomethyl)trimethylazanium Iodide] cannot be ordered by IC50: no less than 10 µM for the first, no less than 10 µM for the second.

`C[N+](C)(CCO)Cc1ccccc1` [Compound 173, benzyl(2-hydroxyethyl)dimethylazanium] and `CSC[N+](C)(C)CCO` [Compound 195, (2-hydroxyethyl)dimethyl[(methylsulfanyl)methyl]azanium] cannot be ordered by IC50: no less than 10 µM for the first, greater than 10 µM for the second.

Going from `C#CC[N+](C)(C)C[C@H](C)C(=O)OC` [Compound 175, [(2S)-3-methoxy-2-methyl-3-oxopropyl]dimethyl(prop-2-yn-1-yl)azanium] to `C#CC[N+](C)(C)CC(C)=O` [Compound 197, dimethyl(2-oxopropyl)(prop-2-yn-1-yl)azanium Bromide], the IC50 rises from 0.17 µM to 4.97 µM (29-fold).

`CC1OC1C[N+](C)(C)C` (stereo not drawn) [Compound 176, trimethyl[(3-methyloxiran-2-yl)methyl]azanium] and `C#CC[N+](C)(C)CC1OC1C` (stereo not drawn) [Compound 181, dimethyl[(3-methyloxiran-2-yl)methyl](prop-2-yn-1-yl)azanium] cannot be ordered by IC50: no less than 10 µM for the first, greater than 10 µM for the second.

First: C#CC[N+](C)(C)Cc1nnn[nH]1 [Compound 177, dimethyl(prop-2-yn-1-yl)[(1H-1,2,3,4-tetrazol-5-yl)methyl]azanium]
Second: C#CC[N+](C)(C)CCN [Compound 183, (2-aminoethyl)dimethyl(prop-2-yn-1-yl)azanium]
The IC50 of the first is lower: 7.57 µM for the first, greater than 10 µM for the second.

`C[N+](C)(C)CC1CC1` [Compound 178, (cyclopropylmethyl)trimethylazanium Iodide] and `C[N+](C)(CCO)CC1CCC1` [Compound 194, (cyclobutylmethyl)(2-hydroxyethyl)dimethylazanium Bromide] cannot be ordered by IC50: no less than 10 µM for the first, greater than 10 µM for the second.

`C[N+](C)(CCO)CC1COC1` [Compound 184, (2-hydroxyethyl)dimethyl[(oxetan-3-yl)methyl]azanium Bromide] and `C[N+](C)(CCO)C1CCC1` [Compound 199, N-(2-hydroxyethyl)-N,N-dimethylcyclobutanaminium] cannot be ordered by IC50: greater than 10 µM for the first, greater than 10 µM for the second.

First: C#CC[N+]1(CC#C)CCCC1 [Compound 188, 1,1-bis(prop-2-yn-1-yl)pyrrolidin-1-ium Bromidebromide]
Second: C#CC[N+]1(CC#C)CC[C@@H](O)C1 [Compound 200, (3R)-3-hydroxy-1,1-bis(prop-2-yn-1-yl)pyrrolidin-1-ium]
The IC50 of the first is higher: greater than 10 µM for the first, 2.74 µM for the second.

First: C#CC[N+](C)(C)CC1(C(=O)OC)CC1 [Compound 190, N-((1-(methoxycarbonyl)cyclopropyl)methyl)-N,N-dimethylprop-2-yn-1-aminium Bromide]
Second: C#CC[N+](C)(C)CCNC(=O)OC(C)(C)C [Compound 192, tert-butyl N-{2-[dimethyl(prop-2-yn-1-yl)azaniumyl]ethyl}carbamate Bromide]
The IC50 of the first is lower: 1.28 µM for the first, greater than 10 µM for the second.

Compared with `C[N+](C)(CCO)C(F)F` [Compound 193, (difluoromethyl)(2-hydroxyethyl)dimethylazanium], `C#CC[N+](C)(C)CSC` [Compound 196, dimethyl[(methylsulfanyl)methyl](prop-2-yn-1-yl)azanium] is 5.6-fold higher in IC50: 1.38 µM for the first, 7.78 µM for the second. The first is the more potent here.

In the case of `C#CC[N+]1(CC#C)CCCN1` [Compound 201, 1,1-bis(prop-2-yn-1-yl)pyrazolidin-1-ium Bromide], the IC50 is reported as greater than 10 µM.

Same assay, conditions: read-out: Average IC50 Whole cell P. mirabilis; d9-TMA from 1 mM d9-choline, 5 h, 37° C.; value 10 given when no fit or % TMA remaining at 10 μM higher than 15%

`C[N+](C)(C)CCC[PH](=O)O` [Compound 147, 3-(hydroxyhydrophosphoryl)-N,N,N-trimethylpropan-1-aminium Chloridechloridechloridechloridechloride] and `C[N+](C)(C)CCCl` [Compound 180] cannot be ordered by IC50: no less than 10 µM for the first, greater than 10 µM for the second.

`C[N+](C)(CCO)CCF` [Compound 186, (2-fluoroethyl)(2-hydroxyethyl)dimethylazanium] and `C[N+](C)(CCO)CCCl` [Compound 198, (2-chloroethyl)(2-hydroxyethyl)dimethylazanium Iodide] cannot be ordered by IC50: greater than 10 µM for the first, greater than 10 µM for the second.
